Test system: NL4-3 strain of HIV-1
Experiment: HIV-1 replication inhibition: cyto-protection of MT4 cells infected with NL4-3 virus (CellTiter-Glo viability assay)
Format: cell-based
Settings: Human immunodeficiency virus 1, NL43, 120 h, concentration leading to 50% of cyto-protection, 5 days incubation
Procedure: The antiviral activity, particularly against HIV, of compounds according to the invention is evaluated by the protocol described below.
Preparation of Virus Stock of the NL4-3 Strain of HIV-1
The virus was prepared as described in Lopez et al (Lopez et al, Proc Natl Acad Sci USA., 2006, 103(40):14947-52, by transfecting 2×10^6 293 T cells (CRL-1573, ATCC) with following modifications: 6 μg of NL4-3 proviral DNA molecular clone were mixed with Fugene 6 transfection reagent from Roche, and used according to manufacturer's instructions. Forty eight hours later, transfected cell supernatants were harvested, filtered through 0.45-μm-pore-size filters, quantified for HIV-1 p24 antigen by using a Innotest HIV antigen mAb assay (Ingen) according to manufacturer's instructions, and used in infection experiments.
Preparation of Compounds:
Serial dilutions of compounds to be tested were prepared in complete RPMI medium from 10 mM DMSO stock solutions, and distributed in a volume of 20 µl in 96 well Falcon 353072 Microtest™ tissue culture plate, in order to get 0.5% DMSO final concentration in each well, after the addition of infected cells. Control wells contained also 0.5% DMSO final concentration but no compound.
MT4 cells (from the NIH AIDS Research and Reference Reagent Program) in RPMI complete medium were counted (10×10^6 cells per well in Falcon 353047 Multiwell™ 24 well) and infected for 2 hours at 37°, at a multiplicity of infection (moi) of 0.0001-0.00001. Cells were then centrifuged 3 min at 3000 rpm, and washed two times in 1 ml PBS to remove viruses that have not entered in cells. Infected cells were resuspended in complete RPMI at 1.25×10^6 cells/ml, and 80 µl of infected cells were distributed in each well containing compounds to be tested or control wells. The plates were then incubated at 37° for 5 days.
Assay Used to Measure the Inhibition of HIV Replication by the Compounds
(according to Gregg S. Jones et al., Antimicrobial Agents and Chemotherapy, 2009, 53 (3): 1194-1203).
After 5 days of incubation, […] of CellTiter-Glo reagent (Promega Biosciences, Inc., Madison Wis., USA) were added to each well. Cell lysis was carried out at room temperature during 10 min, 150 μl of lysates were transferred in Packard Optiplate 96 well, and luminescence was read on a Fluoroskan (Thermo Scientific).

Structure (SMILES) | EC50
Cc1sc(-c2ccsn2)c(C2=CCC(C)(C)CC2)c1C(OC(C)(C)C)C(=O)O (centres unmarked) [Example 58, 2-(tert-butoxy)-2-{2-methyl-4-[4,4-dimethylcyclohex-1-en-1-yl]-5-(isothiazol-3-yl)thiophen-3-yl}acetic acid] | 110 nM
Cc1sc(-c2ccc(=O)n(C)c2)c(-c2ccc3c(c2)CCCO3)c1C(OC(C)(C)C)C(=O)O (centres unmarked) [Example 19, 2-(tert-butoxy)-2-[4-(3,4-dihydro-2H-1-benzopyran-6-yl)-2-methyl-5-(1-methyl-6-oxo-1,6-dihydropyridin-3-yl)thiophen-3-yl]acetic acid] | 430 nM
Cc1sc(-c2cc(C(F)(F)F)nn2C)c(-c2ccc3c(c2)CCCO3)c1C(OC(C)(C)C)C(=O)O (centres unmarked) [Example 83, 2-(tert-butoxy)-2-[4-(3,4-dihydro-2H-1-benzopyran-6-yl)-2-methyl-5-[1-methyl-3-(trifluoromethyl)-1H-pyrazol-5-yl]thiophen-3-yl]acetic acid] | 1700 nM
Cc1sc(C2=CCOCC2)c(-c2ccc3c(c2)CCCO3)c1C(OC(C)(C)C)C(=O)O (centres unmarked) [Example 78, 2-(tert-butoxy)-2-[4-(3,4-dihydro-2H-1-benzopyran-6-yl)-5-(3,6-dihydro-2H-pyran-4-yl)-2-methylthiophen-3-yl]acetic acid] | 4300 nM
CCCc1ccnc(-c2sc(C)c(C(OC(C)(C)C)C(=O)O)c2C2=CCC(C)(C)CC2)c1 (centres unmarked) [Example 71, 2-(tert-butoxy)-2-{2-methyl-4-[4,4-dimethylcyclohex-1-en-1-yl]-5-(4-(n-propyl)pyridin-2-yl)thiophen-3-yl}acetic acid] | 1100 nM
Cc1cccnc1-c1sc(C)c(C(OC(C)(C)C)C(=O)O)c1C1=CCC(C)(C)CC1 (centres unmarked) [Example 47, 2-(tert-butoxy)-2-[4-(4,4-dimethylcyclohex-1-en-1-yl)-2-methyl-5-(3-methylpyridin-2-yl)thiophen-3-yl]acetic acid] | 510 nM
Cc1sc(-n2cccn2)c(C2=CCC(C)(C)CC2)c1C(OC(C)(C)C)C(=O)O (centres unmarked) [Example 50, 2-(tert-butoxy)-2-[4-(4,4-dimethylcyclohex-1-en-1-yl)-2-methyl-5-(1H-pyrazol-1-yl)thiophen-3-yl]acetic acid] | 770 nM
Cc1sc(-c2cccnc2)c(-c2ccc3c(c2)CCCO3)c1C(OC(C)(C)C)C(=O)O (centres unmarked) [Example 8, 2-(tert-butoxy)-2-[4-(3,4-dihydro-2H-1-benzopyran-6-yl)-2-methyl-5-(pyridin-3-yl)thiophen-3-yl)acetic acid] | 270 nM
Cc1sc(-c2cnc3c(c2)CCCO3)c(-c2ccc3c(c2)CCCO3)c1C(OC(C)(C)C)C(=O)O (centres unmarked) [Example 4, (tert-butoxy)[4-(3,4-dihydro-2H-1-benzopyran-6-yl)-2-methyl-5-{2H,3H,4H-pyrano[2,3-b]pyridin-6-yl}thiophen-3-yl]acetic acid] | 180 nM
Cc1sc(-c2cnn(C)c2)c(-c2ccc3c(c2)CCCO3)c1C(OC(C)(C)C)C(=O)O (centres unmarked) [Example 88, 2-(tert-butoxy)-2-[4-(3,4-dihydro-2H-1-benzopyran-6-yl)-2-methyl-5-(1-methyl-1H-pyrazol-4-yl)thiophen-3-yl]acetic acid] | 1600 nM
Cc1csnc1-c1sc(C)c(C(OC(C)(C)C)C(=O)O)c1C1=CCC(C)(C)CC1 (centres unmarked) [Example 89, 2-(tert-butoxy)-2-{2-methyl-4-[4,4-dimethylcyclohex-1-en-1-yl]-5-(4-methylisothiazol-3-yl)thiophen-3-yl}acetic acid] | 860 nM
Cc1sc(-c2cncnc2)c(-c2ccc3c(c2)CCCO3)c1C(OC(C)(C)C)C(=O)O (centres unmarked) [Example 18, 2-(tert-butoxy)-2-[4-(3,4-dihydro-2H-1-benzopyran-6-yl)-2-methyl-5-(pyrimidin-5-yl)thiophen-3-yl]acetic acid] | 260 nM
Cc1sc(-c2ccc(S(N)(=O)=O)cc2)c(C2=CCC(C)(C)CC2)c1C(OC(C)(C)C)C(=O)O (centres unmarked) [Example 32, 2-(tert-butoxy)-2-[4-(4,4-dimethylcyclohex-1-en-1-yl)-2-methyl-5-(benzenesulfonamide-4-yl)thiophen-3-yl]acetic acid] | 430 nM
Cc1cccc(-c2sc(C)c(C(OC(C)(C)C)C(=O)O)c2C2=CCC(C)(C)CC2)n1 (centres unmarked) [Example 73, 2-(tert-butoxy)-2-{2-methyl-4-[4,4-dimethylcyclohex-1-en-1-yl]-5-(6-methylpyridin-2-yl)thiophen-3-yl}acetic acid] | 6900 nM
Cc1sc(-n2cccn2)c(-c2ccc3c(c2)CCCO3)c1C(OC(C)(C)C)C(=O)O (centres unmarked) [Example 85, 2-(tert-butoxy)-2-[4-(3,4-dihydro-2H-1-benzopyran-6-yl)-2-methyl-5-(1H-pyrazol-1-yl)thiophen-3-yl]acetic acid] | 1900 nM
Cc1sc(-c2ncccn2)c(C2=CCC(C)(C)CC2)c1C(OC(C)(C)C)C(=O)O (centres unmarked) [Example 49, 2-(tert-butoxy)-2-{2-methyl-4-[4,4-dimethylcyclohex-1-en-1-yl]-5-(Pyrimidin-2-yl)thiophen-3-yl}acetic acid] | 990 nM
Cc1sc(-c2ccncc2)c(-c2ccc3c4c(ccnc24)CCO3)c1C(OC(C)(C)C)C(=O)O (centres unmarked) [Example 74, 2-(tert-butoxy)-2-(2-methyl-4-(2,3-dihydropyrano[4,3,2-de]quinolin-7-yl)-5-(pyridin-4-yl)thiophen-3-yl)acetic acid] | 6800 nM
COc1ccc(-c2sc(C)c(C(OC(C)(C)C)C(=O)O)c2-c2ccc3c(c2)CCCO3)cn1 (centres unmarked) [Example 79, 2-(tert-butoxy)-2-[4-(3,4-dihydro-2H-1-benzopyran-6-yl)-5-(6-methoxypyridin-3-yl)-2-methylthiophen-3-yl]acetic acid] | 1500 nM
Cc1sc(-c2ccc(=O)n(CC3CC3)c2)c(C2=CCC(C)(C)CC2)c1C(OC(C)(C)C)C(=O)O (centres unmarked) [Example 37] | 320 nM
Cc1sc(-c2cscn2)c(C2=CCC(C)(C)CC2)c1C(OC(C)(C)C)C(=O)O (centres unmarked) [Example 54, 2-(tert-butoxy)-2-{2-methyl-4-[4,4-dimethylcyclohex-1-en-1-yl]-5-(thiazol-4-yl)thiophen-3-yl}acetic acid] | 470 nM
Cc1sc(-c2cccc(C(N)=O)c2)c(C2=CCC(C)(C)CC2)c1C(OC(C)(C)C)C(=O)O (centres unmarked) [Example 31, 2-(tert-butoxy)-2-[4-(4,4-dimethylcyclohex-1-en-1-yl)-2-methyl-5-(aminocarbonylphen-3-yl)thiophen-3-yl]acetic acid] | 40 nM
Cc1sc(-c2ccsc2)c(-c2ccc3c(c2)CCCO3)c1C(OC(C)(C)C)C(=O)O (centres unmarked) [Example 20, 2-(tert-butoxy)-2-[4-(3,4-dihydro-2H-1-benzopyran-6-yl)-2-methyl-5-(thiophen-3-yl)thiophen-3-yl]acetic acid] | 220 nM
Cc1sc(-c2ccncc2)c(-c2cc(F)c3c(c2)CCCO3)c1C(OC(C)(C)C)C(=O)O (centres unmarked) [Example 40, 2-(tert-butoxy)-2-[4-(8-fluoro-3,4-dihydro-2H-1-benzopyran-6-yl)-2-methyl-5-(pyridin-4-yl)thiophen-3-yl]acetic acid] | 360 nM
Cc1sc(-c2ccncc2)c(C2=CCC(F)(F)CC2)c1C(OC(C)(C)C)C(=O)O (centres unmarked) [Example 28, 2-(tert-butoxy)-2-[2-methyl-4-(4,4-difluorocyclohex-1-en-1-yl)-5-(pyridin-4-yl)thiophen-3-yl]acetic acid] | 750 nM
Cc1sc(-c2nccs2)c(C2=CCC(C)(C)CC2)c1C(OC(C)(C)C)C(=O)O (centres unmarked) [Example 45, 2-(tert-butoxy)-2-[4-(4,4-dimethylcyclohex-1-en-1-yl)-2-methyl-5-(1,3-thiazol-2-yl)thiophen-3-yl]acetic acid] | 440 nM
CCCc1cccc(-c2sc(C)c(C(OC(C)(C)C)C(=O)O)c2C2=CCC(C)(C)CC2)n1 (centres unmarked) [Example 51, 2-(tert-butoxy)-2-{2-methyl-4-[4,4-dimethylcyclohex-1-en-1-yl]-5-(6-(n-propyl)pyridin-2-yl)thiophen-3-yl}acetic acid] | 270 nM

— patent US9562033B2, “Inhibitors of viral replication, their process of preparation and their therapeutical uses” (LABORATOIRE BIODIM, priority 2012, dated 2017)
